Experimental data from ChEMBL document CHEMBL1201862, “PubChem BioAssay data set” (2004).
The source made the active and inactive calls.

Key:
[1] = target: T1, Apoptotic protease-activating factor 1 (Homo sapiens, UniProt O14727); assay: SAR analysis of small molecule Activators of Apaf-1 in a Fluorescent assay.; assay type: functional; conditions: read-out: EC50_Mean;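 note: caspase-3 cleavage of fluorogenic Rh110 DEVD substrate downstream of apoptosome activation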
T1 sequence (O14727 whole entry): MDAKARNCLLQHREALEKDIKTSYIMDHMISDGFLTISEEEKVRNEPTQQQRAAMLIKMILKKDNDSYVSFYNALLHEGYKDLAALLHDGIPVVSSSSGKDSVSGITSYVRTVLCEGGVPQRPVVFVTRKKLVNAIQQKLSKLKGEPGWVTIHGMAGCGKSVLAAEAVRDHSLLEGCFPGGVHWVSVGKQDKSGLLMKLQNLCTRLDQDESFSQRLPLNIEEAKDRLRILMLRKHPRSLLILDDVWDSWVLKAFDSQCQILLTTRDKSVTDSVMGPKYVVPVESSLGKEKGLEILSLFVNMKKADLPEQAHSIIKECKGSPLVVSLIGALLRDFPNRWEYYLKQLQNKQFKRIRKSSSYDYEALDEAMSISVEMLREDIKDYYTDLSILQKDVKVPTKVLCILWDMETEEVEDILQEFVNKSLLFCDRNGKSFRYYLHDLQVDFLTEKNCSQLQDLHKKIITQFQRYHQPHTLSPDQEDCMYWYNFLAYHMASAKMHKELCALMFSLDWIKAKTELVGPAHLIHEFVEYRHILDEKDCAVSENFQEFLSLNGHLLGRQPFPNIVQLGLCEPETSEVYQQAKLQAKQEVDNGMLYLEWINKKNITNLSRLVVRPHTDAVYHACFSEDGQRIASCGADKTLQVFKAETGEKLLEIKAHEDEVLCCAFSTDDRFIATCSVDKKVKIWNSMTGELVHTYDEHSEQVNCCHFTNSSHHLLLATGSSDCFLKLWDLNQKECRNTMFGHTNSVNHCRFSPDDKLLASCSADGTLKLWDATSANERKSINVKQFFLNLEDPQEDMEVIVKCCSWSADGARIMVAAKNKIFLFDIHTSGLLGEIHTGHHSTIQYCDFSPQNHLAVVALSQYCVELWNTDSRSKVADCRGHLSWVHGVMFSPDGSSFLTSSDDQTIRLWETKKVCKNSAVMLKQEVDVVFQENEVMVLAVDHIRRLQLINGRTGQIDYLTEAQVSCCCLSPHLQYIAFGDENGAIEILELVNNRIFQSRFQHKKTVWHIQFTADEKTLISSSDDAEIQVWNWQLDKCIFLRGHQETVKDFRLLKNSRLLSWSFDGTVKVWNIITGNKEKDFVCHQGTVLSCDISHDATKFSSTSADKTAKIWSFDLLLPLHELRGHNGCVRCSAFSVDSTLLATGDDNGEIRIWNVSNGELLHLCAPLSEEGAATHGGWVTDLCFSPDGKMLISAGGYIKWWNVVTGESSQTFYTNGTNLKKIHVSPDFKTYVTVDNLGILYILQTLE

Beta-galactosidase = Beta-galactosidase (Escherichia coli, UniProt Q8VNN2); assay: PubChem AID 485352; assay type: functional
Beta-galactosidase, sequence (Q8VNN2 whole entry): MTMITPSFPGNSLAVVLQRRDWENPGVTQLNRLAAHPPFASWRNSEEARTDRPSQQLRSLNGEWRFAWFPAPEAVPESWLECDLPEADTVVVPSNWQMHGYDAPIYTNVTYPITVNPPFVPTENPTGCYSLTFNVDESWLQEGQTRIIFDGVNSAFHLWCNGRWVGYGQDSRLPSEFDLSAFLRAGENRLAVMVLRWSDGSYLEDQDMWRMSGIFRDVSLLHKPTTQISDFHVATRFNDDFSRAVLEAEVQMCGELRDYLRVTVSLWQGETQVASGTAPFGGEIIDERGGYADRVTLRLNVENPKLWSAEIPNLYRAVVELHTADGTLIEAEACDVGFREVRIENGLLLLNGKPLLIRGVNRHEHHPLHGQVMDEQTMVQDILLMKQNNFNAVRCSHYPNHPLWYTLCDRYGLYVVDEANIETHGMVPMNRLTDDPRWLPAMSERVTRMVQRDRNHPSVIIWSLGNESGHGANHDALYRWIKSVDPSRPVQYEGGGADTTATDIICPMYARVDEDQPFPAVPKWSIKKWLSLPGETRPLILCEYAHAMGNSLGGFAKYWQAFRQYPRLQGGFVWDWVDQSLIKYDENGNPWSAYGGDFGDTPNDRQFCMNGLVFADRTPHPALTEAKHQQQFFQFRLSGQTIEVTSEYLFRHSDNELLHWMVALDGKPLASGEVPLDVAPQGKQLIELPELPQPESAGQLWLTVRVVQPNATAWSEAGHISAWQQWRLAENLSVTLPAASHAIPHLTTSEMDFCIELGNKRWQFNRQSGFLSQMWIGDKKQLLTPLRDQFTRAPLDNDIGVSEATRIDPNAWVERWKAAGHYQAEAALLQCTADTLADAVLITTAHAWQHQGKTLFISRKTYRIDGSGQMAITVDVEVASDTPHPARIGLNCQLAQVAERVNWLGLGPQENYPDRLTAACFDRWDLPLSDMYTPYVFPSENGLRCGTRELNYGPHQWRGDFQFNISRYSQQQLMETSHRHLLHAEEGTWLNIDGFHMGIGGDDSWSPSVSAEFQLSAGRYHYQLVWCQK

[2] = target: T2, Type-1 angiotensin II receptor (Homo sapiens, UniProt P30556); assay: AT1 receptor antagonists, dose response, selectivity assay for APJ receptor antagonist project, cell-based, uHTS hits (AID 463214); assay type: functional;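 note: antagonist potency against angiotensin II stimulated AT1 response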
T2 sequence (P30556 whole entry): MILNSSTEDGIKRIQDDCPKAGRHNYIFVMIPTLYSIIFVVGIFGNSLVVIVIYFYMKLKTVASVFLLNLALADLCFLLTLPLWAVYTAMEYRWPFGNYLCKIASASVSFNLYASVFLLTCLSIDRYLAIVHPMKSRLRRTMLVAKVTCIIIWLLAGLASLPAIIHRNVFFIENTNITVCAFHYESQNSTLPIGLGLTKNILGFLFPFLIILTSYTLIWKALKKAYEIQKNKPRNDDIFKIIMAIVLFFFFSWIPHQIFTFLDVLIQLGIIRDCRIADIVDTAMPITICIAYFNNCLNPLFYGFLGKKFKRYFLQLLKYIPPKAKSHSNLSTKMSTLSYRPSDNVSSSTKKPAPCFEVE

[3] = microbe, parasite or virus in culture; assay type: functional; conditions: Mycobacterium tuberculosis
Vero = Vero cell cytotoxicity, cytotoxicity control for flavivirus capping enzyme inhibitors (AID 588742); assay type: functional; conditions: Chlorocebus sabaeus
Orexin receptor type 2 [4] = target: T3, Orexin receptor type 2 (Homo sapiens, UniProt O43614); assay: Counterscreen assay for antagonists of the orexin 1 receptor (OX1R; HCRTR1): Fluorescence-based cell-based dose response assay for antagonists of the orexin 2 receptor (OX2R; HCRTR2), run by assay provider.; assay type: functional
T3 sequence (O43614 whole entry): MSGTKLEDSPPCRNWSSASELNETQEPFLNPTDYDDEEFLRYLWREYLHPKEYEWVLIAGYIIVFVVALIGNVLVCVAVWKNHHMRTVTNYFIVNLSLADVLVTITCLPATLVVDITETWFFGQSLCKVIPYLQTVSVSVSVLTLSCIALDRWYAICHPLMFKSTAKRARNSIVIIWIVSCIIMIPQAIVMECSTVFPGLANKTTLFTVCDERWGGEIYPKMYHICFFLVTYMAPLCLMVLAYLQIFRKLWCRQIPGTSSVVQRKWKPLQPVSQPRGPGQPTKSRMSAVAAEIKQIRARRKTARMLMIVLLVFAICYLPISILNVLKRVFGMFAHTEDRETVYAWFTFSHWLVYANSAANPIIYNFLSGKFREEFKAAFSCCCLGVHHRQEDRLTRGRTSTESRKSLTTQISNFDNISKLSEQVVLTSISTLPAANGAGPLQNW

Orexin receptor type 2 [5] = target: T3, Orexin receptor type 2; assay: Counterscreen assay for antagonists of the orexin 1 receptor (OX1R; HCRTR1): Homogeneous Time Resolved Fluorescence (HTRF)-based cell-based dose response assay for antagonists of the orexin 2 receptor (OX2R; HCRTR2), run by assay provider.; assay type: functional
[6] = target: T4, High affinity choline transporter 1 (Homo sapiens, UniProt Q9GZV3); assay: CHT inhibitors, dose response, cell-based, 10-point CRC, membrane potential dye (AID 588401); assay type: functional;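 note: membrane potential dye fluorescence of choline-evoked depolarization via CHT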
T4 sequence (Q9GZV3 whole entry): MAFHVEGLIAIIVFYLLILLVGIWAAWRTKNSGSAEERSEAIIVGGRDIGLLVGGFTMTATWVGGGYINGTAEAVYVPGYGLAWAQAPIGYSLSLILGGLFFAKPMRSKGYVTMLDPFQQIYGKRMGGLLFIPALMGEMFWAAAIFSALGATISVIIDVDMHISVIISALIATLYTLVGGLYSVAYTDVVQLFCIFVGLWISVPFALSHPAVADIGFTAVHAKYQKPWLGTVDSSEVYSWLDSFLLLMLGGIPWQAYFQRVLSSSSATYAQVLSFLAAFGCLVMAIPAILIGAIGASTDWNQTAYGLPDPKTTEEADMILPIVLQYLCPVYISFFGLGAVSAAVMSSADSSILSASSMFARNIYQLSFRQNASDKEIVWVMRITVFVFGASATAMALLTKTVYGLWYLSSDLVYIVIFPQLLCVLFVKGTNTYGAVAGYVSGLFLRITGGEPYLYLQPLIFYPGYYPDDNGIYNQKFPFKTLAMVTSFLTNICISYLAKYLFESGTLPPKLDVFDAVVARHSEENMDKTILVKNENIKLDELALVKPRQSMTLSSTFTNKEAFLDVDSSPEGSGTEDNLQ

[7] = target: T4, High affinity choline transporter 1; assay: CHT inhibitors, dose response, cell-based, 5-point CRC, membrane potential dye (AID 504840); assay type: functional
INS1 = assay: beta cell apoptosis inhibitors, cytokine rescue, dose response, luminescence, retest (AID 449756); assay type: functional, cell-based; conditions: Rattus norvegicus;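 note: cell death triggered by IL-1 beta plus TNF-alpha plus IFN-gamma mixture; protective hits raise ATP signal compared with cytokine alone wells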
[8] = C. albicans growth with fluconazole, confirmation, fluorescence, retest (AID 2467); assay type: functional, cell-based
[9] = target: T5, Serine/threonine-protein phosphatase (Candida dubliniensis (strain CD36 / CBS 7987 / NCPF 3949 / NRRLY-17841) (Yeast), UniProt B9W6M3); assay: calcineurin pathway inhibitors in yeast reporter, dose response, S. cerevisiae, CDRE-lacZ, luminescence, secondary (AID 2388); assay type: functional, cell-based;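 note: yeast reporter cells carrying a calcineurin-responsive lacZ construct stimulated with calcium chloride; luminescent beta-galactosidase reporter signal in whole cells rather than isolated phosphatase activity; potency for inhibition where a drop in reporter signal means calcineurin blockade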
T5 sequence (B9W6M3 whole entry): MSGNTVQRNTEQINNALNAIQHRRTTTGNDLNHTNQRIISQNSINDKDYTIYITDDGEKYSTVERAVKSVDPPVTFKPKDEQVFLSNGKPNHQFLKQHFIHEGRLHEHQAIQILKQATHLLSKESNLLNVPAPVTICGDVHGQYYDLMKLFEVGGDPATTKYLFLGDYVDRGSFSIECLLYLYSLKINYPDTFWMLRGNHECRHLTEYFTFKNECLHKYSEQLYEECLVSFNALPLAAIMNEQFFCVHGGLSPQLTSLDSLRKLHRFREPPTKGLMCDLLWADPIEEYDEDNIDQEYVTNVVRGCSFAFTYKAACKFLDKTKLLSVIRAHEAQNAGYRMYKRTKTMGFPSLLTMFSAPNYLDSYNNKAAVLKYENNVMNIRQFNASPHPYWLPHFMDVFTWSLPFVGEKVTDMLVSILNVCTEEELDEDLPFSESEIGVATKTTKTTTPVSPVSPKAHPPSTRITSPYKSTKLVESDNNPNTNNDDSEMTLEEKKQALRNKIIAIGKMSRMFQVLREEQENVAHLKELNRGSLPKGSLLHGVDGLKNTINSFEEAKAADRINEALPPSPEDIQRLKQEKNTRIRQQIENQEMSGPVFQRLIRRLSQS

Protein skinhead-1 = target: T6, Protein skinhead-1 (Caenorhabditis elegans, UniProt P34707); assay type: functional
T6 sequence (P34707 whole entry): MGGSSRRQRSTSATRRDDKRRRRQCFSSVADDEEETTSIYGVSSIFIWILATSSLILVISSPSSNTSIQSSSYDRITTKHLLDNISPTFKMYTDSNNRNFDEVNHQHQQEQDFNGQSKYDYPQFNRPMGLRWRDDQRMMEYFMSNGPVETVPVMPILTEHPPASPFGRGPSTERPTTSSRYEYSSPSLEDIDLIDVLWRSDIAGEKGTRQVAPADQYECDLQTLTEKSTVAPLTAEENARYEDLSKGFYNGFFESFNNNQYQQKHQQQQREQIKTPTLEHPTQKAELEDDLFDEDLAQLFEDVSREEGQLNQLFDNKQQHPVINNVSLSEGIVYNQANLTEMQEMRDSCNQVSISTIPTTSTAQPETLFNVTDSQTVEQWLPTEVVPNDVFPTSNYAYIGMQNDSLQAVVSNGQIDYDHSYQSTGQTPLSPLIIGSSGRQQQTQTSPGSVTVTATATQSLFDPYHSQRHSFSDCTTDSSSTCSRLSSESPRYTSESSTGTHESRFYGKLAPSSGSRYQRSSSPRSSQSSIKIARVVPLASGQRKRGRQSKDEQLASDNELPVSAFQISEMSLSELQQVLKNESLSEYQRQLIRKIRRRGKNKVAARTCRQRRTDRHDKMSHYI

[10] = NIH-3T3 fibroblast cytotoxicity, dose response, cytotoxicity control, cell-based, fluorescence, Alamar Blue, secondary assay (AID 2327); assay type: functional;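 note: NIH-3T3 mouse fibroblasts cultured with fluconazole at 8 µg/mL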
[11] = target: ATP-dependent molecular chaperone HSP82 (Candida albicans (strain WO-1) (Yeast), UniProt C4YTQ8); assay: loss of DOC-induced GRE-beta-galactosidase reporter signal, dose response, Hsp90 inhibitor project, S. cerevisiae, luminescence (AID 2400); assay type: functional, cell-based;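 note: beta-galactosidase luminescence from glucocorticoid response element reporter as proxy for Hsp90 function; inhibitor potency where signal loss means Hsp90 inhibition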
ATP-dependent molecular chaperone HSP82, sequence (C4YTQ8 whole entry): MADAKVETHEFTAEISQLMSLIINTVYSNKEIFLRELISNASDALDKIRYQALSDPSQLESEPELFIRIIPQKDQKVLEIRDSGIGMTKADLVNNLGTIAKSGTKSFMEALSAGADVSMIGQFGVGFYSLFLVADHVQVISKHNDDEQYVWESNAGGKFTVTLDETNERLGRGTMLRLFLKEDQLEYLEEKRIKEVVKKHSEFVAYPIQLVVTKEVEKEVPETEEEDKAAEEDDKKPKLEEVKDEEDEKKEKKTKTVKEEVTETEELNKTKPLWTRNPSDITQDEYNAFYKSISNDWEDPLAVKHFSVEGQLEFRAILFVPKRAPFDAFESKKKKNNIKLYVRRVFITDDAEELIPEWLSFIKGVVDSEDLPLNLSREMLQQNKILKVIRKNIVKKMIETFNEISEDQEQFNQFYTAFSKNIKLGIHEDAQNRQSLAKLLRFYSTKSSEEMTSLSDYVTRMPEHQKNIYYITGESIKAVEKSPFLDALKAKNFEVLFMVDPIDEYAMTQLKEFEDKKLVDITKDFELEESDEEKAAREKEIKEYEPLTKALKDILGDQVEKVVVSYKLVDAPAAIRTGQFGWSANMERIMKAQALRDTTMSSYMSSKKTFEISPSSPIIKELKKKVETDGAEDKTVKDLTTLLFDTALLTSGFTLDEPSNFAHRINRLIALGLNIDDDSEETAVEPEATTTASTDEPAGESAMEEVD

A-375 [12] = assay: MITF: Counter assay: A375 proliferation Measured in Cell-Based System Using Plate Reader - 2084-03_Inhibitor_Dose_DryPowder_Activity. [Related pubchem assays (depositor defined):AID488944]; assay type: functional; conditions: Homo sapiens
A-375 [13] = assay: A375 melanoma cell viability reduction, dose response, counter-screen for MITF modulator project, cherry-pick samples, set 2 (AID 540335); assay type: functional, cell-based; conditions: Homo sapiens

Cc1nc(C(F)(F)F)ccc1C(=O)Nc1nc2ccsc2c(=O)s1
EC50 [1]: > 100 µM (inactive)

Cc1ccc(C(=O)COC(=O)CNS(=O)(=O)c2ccccc2)cc1[N+](=O)[O-]
EC50 (Beta-galactosidase): > 40 µM (inactive) | IC50 [2]: 33 µM (not active)

Cc1sc2nc3c4ccccc4c(NCc4ccco4)nn3c(=O)c2c1C
CC50 [3]: 37.6 µM (active) | CC50 (Vero): > 40 µM (active)

CCOc1ccccc1C(=O)NCCCCNC(=O)c1ccccc1OCC
IC50 (Orexin receptor type 2 [4]): > 88.8 µM (inactive) | IC50 (Orexin receptor type 2 [5]): > 50 µM (inactive)

COc1ccc(CN2CCN(C(C)C)C(CCO)C2)cc1Cn1cccn1 (stereo not given)
IC50 [6]: 1.41 µM (active) | IC50 [7]: 3.31 µM (active)

COc1cccc(COc2cc3ccccc3nc2C)c1
AC50 (INS1): 2.61 µM (active) | EC50 [8]: 914 nM (active) | EC50 [9]: > 180 µM (inactive) | IC50 (Protein skinhead-1): 80.1 µM (inactive) | EC50 [10]: > 150 µM (inconclusive) | EC50 [11]: > 160 µM (inactive)

O=C(NC1CCCCCCC1)c1ccc(CNc2c(N3CCOCC3)c(=O)c2=O)cc1
IC50 [6]: 2.01 µM (active) | IC50 [7]: 0.875 µM (active)

COc1ccc(CC2=C(O)C(=O)c3ccccc3C2=O)cc1
CC50 (Vero): > 40 µM (active)

O=C(Nc1nc2ccsc2c(=O)s1)C1CCC1
AC50 (A-375 [12]): > 35 µM (active) | EC50 [1]: > 100 µM (inactive) | AC50 (A-375 [13]): > 35 µM (active)

COc1ccc(NS(=O)(=O)c2ccc(NC(=O)c3ccccc3Br)cc2)nn1
IC50 [6]: 5.01 µM (active) | IC50 [7]: 10.3 µM (active)

O=C(COC(=O)c1ccncc1)c1ccc(Cl)c(Cl)c1
EC50 (Beta-galactosidase): > 40 µM (inactive) | IC50 [2]: 15 µM (active)
